Data from article PMC8648660, “Multifunctional thiosemicarbazones targeting sigma receptors: in vitro and in vivo antitumor activities in pancreatic cancer models” (Cellular Oncology, 2021).

What was measured:
[1] = tested on: GRP78, ATF6, IRE1 and PERK; test: qRT-PCR of ER stress markers in pancreatic cancer cells; assay type: cell-based, human and murine; details: 50 µM, 2 h
Procedure: Total RNA was extracted using a phenol/chloroform method, after which 1 µg RNA was reverse-transcribed using an iScript Reverse Transcription Supermix kit according to the manufacturer’s instructions (Bio-Rad Laboratories). 25 ng cDNA was amplified using 10 µl of an IQ™ SYBR Green Supermix (Bio-Rad Laboratories). Primers were designed using qPrimer Depot software (http://primerdepot.nci.nih.gov/). qRT-PCR was carried out using an iQ^TM5 cycler (Bio-Rad Laboratories). The cycling conditions used were: 30 s at 95 °C, followed by 40 cycles of denaturation (15 s at 95 °C) and annealing/extension (30 s at 60 °C). The same cDNA preparations were used to quantify the expression of genes of interest and that of the housekeeping gene S14, which was used to normalize the gene expression levels. Relative quantitation of each sample was performed using Gene Expression Quantitation software (Bio-Rad Laboratories). The results were expressed in arbitrary units. For each gene, the expression level in untreated cells was arbitrarily set at “1”.

MiaPaCa2 cells = tested on: MiaPaCa2 cells; parameters: method as in PMID 29287249; details: cited from earlier work
PANC-1 cells = tested on: PANC-1 cells; parameters: method as in PMID 29287249; details: cited from earlier work
AspC1 cells = tested on: AspC1 cells; parameters: method as in PMID 29287249; details: cited from earlier work
BxPC3 cells = tested on: BxPC3 cells; parameters: method as in PMID 29287249; details: cited from earlier work
KP02 cells = tested on: KP02 cells; parameters: method as in PMID 29287249; details: cited from earlier work
PANC02 cells = tested on: PANC02 cells; parameters: method as in PMID 29287249; details: cited from earlier work
HPDE cells = tested on: HPDE cells; parameters: method as in PMID 29287249; details: read-out: Activity EC50, HPDE (normal cells); cited from earlier work
PANC-1 xenografts = test: In vivo xenograft assay, PANC-1; parameters: species or system mice; details: for tumor growth: gemcitabine 20 mg/kg twice a week
Procedure: 2 × 10^5 PANC-1 or Mia-PaCa2 cells were inoculated subcutaneously in the right flank of 6-week old C57BL/6 female nude mice (Charles River Laboratories Italia, Calco), housed (5 per cage) under a 12 h light/dark cycle, with food and drinking water provided ad libitum. Tumor growth was measured daily by caliper, according to the equation (LxW^2)/2, where L = tumor length and W = tumor width. When tumors reached a volume of 100 mm^3, the mice (n = 8/group) were randomized in the following groups and treated daily for 15 days or 30 days intraperitoneally as reported: (1) Vehicle group (100 µl saline solution), (2) FA4^low group (750 nmol FA4 in 100 µl saline solution), (3) FA4^high group (1500 nmol FA4 in 100 µl saline solution) and (4) Gemcitabine group (20 mg/kg gemcitabine, twice a week). Tumor volumes and animal weights were monitored daily. Animals were euthanized at day 18 or 36 after randomization with zolazepam (0.2 ml/kg) and xylazine (16 mg/kg). Next, tumors were excised and paraffin-embedded. Sections were immuno-stained for cleaved caspase 3 (Cell Signalling Technology, Danvers, MA, USA) or with an anti-malondialdehyde antibody (Abcam), followed by a peroxidase-conjugated secondary antibody (Dako, Glostrup, Denmark). The sections were examined under a Leica DC100 microscope (Leica, Wetzlar, Germany). Quantification of the immunohistochemical analyses was performed using ImageJ software (https://imagej.nih.gov/). The staining intensities were expressed as arbitrary units and considered 1 in the vehicle group.

MiaPaCa2 xenografts = test: In vivo xenograft assay, MiaPaCa2; parameters: species or system mice; details: gemcitabine 20 mg/kg twice a week, 15 days
Procedure: 2 × 10^5 PANC-1 or Mia-PaCa2 cells were inoculated subcutaneously in the right flank of 6-week old C57BL/6 female nude mice (Charles River Laboratories Italia, Calco), housed (5 per cage) under a 12 h light/dark cycle, with food and drinking water provided ad libitum. Tumor growth was measured daily by caliper, according to the equation (LxW^2)/2, where L = tumor length and W = tumor width. When tumors reached a volume of 100 mm^3, the mice (n = 8/group) were randomized in the following groups and treated daily for 15 days or 30 days intraperitoneally as reported: (1) Vehicle group (100 µl saline solution), (2) FA4^low group (750 nmol FA4 in 100 µl saline solution), (3) FA4^high group (1500 nmol FA4 in 100 µl saline solution) and (4) Gemcitabine group (20 mg/kg gemcitabine, twice a week). Tumor volumes and animal weights were monitored daily. Animals were euthanized at day 18 or 36 after randomization with zolazepam (0.2 ml/kg) and xylazine (16 mg/kg). Next, tumors were excised and paraffin-embedded. […] Quantification of the immunohistochemical analyses was performed using ImageJ software (https://imagej.nih.gov/). The staining intensities were expressed as arbitrary units and considered 1 in the vehicle group.

[2] = Systemic toxicity and hematochemical parameters of treated PANC-1 tumor-bearing mice; details: gemcitabine 20 mg/kg twice a week; mean ± SD
Procedure: 2 × 10^5 PANC-1 or Mia-PaCa2 cells were inoculated subcutaneously in the right flank of 6-week old C57BL/6 female nude mice (Charles River Laboratories Italia, Calco), housed (5 per cage) under a 12 h light/dark cycle, with food and drinking water provided ad libitum. Tumor growth was measured daily by caliper, according to the equation (LxW^2)/2, where L = tumor length and W = tumor width. […] Tumor volumes and animal weights were monitored daily. Animals were euthanized at day 18 or 36 after randomization with zolazepam (0.2 ml/kg) and xylazine (16 mg/kg). […] Red blood cell (RBC) count, hemoglobin (Hb), white blood cell (WBC) count, platelet (PLT) count, lactate dehydrogenase (LDH), aspartate aminotransferase (AST), alanine aminotransferase (ALT), alkaline phosphatase (AP), creatinine and creatine phosphokinase (CPK) were measured in blood samples collected immediately after euthanasia, using commercially available kits from Beckman Coulter Inc (Beckman Coulter, Miami, FL, USA).
Blood was collected immediately after euthanasia and analyzed for red blood cells (RBC) count, hemoglobin (Hb), white blood cells (WBC) count, platelets (PLT) count, lactate dehydrogenase (LDH), aspartate aminotransferase (AST), alanine aminotransferase (ALT), alkaline phosphatase (AP), creatinine, creatine phosphokinase (CPK). Data are presented as means ± SD.

[3] = tested on: sigma-1 and sigma-2 receptor subtypes; parameters: method as in PMID 24106081; details: cited from earlier work

CN(C)C(=S)N/N=C1\C(=O)Nc2ccccc21 [ACthio-1, (Z)-N,N-dimethyl-2-(2-oxoindolin-3-ylidene)hydrazinecarbothioamide]
mRNA expression of ER stress markers GRP78, ATF6, IRE1, PERK [1]: none of the markers was increased in the other cells | EC50 (MiaPaCa2 cells): 18.3 µM | EC50 (PANC-1 cells): > 100 µM | EC50 (AspC1 cells): 2.17 µM | EC50 (BxPC3 cells): 2.52 µM | EC50 (KP02 cells): 2.83 µM | EC50 (PANC02 cells): 1.21 µM | EC50 (HPDE cells): 10.5 µM

COc1cc2c(cc1OC)CN(CCCCN1C(=O)/C(=N\NC(=S)N(C)C)c3ccccc31)CC2 [MLP44, (Z)-2-(1-(4-(6,7-dimethoxy-3,4-dihydroisoquinolin-2(1H)-yl)butyl)-2-oxoindolin-3-ylidene)-N,N-dimethylhydrazinecarbothioamide]
mRNA expression of ER stress markers GRP78, ATF6, IRE1, PERK [1]: none of the markers was increased in the other cells | EC50 (MiaPaCa2 cells): 14.6 µM | EC50 (PANC-1 cells): 14.6 µM | EC50 (AspC1 cells): 2.01 µM | EC50 (BxPC3 cells): 2.34 µM | EC50 (KP02 cells): 6.92 µM | EC50 (PANC02 cells): 1.33 µM | EC50 (HPDE cells): 9.5 µM

CN(C)C(=S)N/N=C1\C(=O)N(CCCCN2CCN(C3CCCCC3)CC2)c2ccccc21 [PS3, (Z)-2-[1-[4-(4-cyclohexylpiperazin-1-yl)butyl]-2-oxoindolin-3-ylidene]-N,N-dimethylhydrazinecarbothioamide]
mRNA expression of ER stress markers GRP78, ATF6, IRE1, PERK [1]: none of the markers was increased in the other cells | EC50 (MiaPaCa2 cells): 10.1 µM | EC50 (PANC-1 cells): 8.73 µM | EC50 (AspC1 cells): 3.86 µM | EC50 (BxPC3 cells): 6.15 µM | EC50 (KP02 cells): 7.32 µM | EC50 (PANC02 cells): 1.17 µM | EC50 (HPDE cells): 5.35 µM

Nc1ccn([C@@H]2O[C@H](CO)[C@@H](O)C2(F)F)c(=O)n1 [gemcitabine]
tumor growth (PANC-1 xenografts; 15 days): ineffective against this tumor cell line | tumor growth (PANC-1 xenografts; 30 days): not able to significantly reduce tumor growth | intratumor apoptosis (cleaved caspase 3) and lipid peroxidation (PANC-1 xenografts; gemcitabine, 30 days): low or undetectable | tumor growth (MiaPaCa2 xenografts): MiaPaCa2 tumors were more sensitive to gemcitabine | ALT [2]: 36±12 U/l | AP [2]: 134±43 U/l | AST [2]: 142±18 U/l | CPK [2]: 309±32 U/l | Hb [2]: 11.03 ± 1.94 g/dL | LDH [2]: 6704±832 U/l | PLT [2]: 931±165 x 10^3/µl | RBC [2]: 11.28±0.98 x 10^6/µl | WBC [2]: 12.18±2.39 x 10^3/µl

Fc1ccc(-n2cc(CCCCN3CCC4(CC3)OCc3ccccc34)c3ccccc32)cc1 [siramesine]
binding to sigma-1 versus sigma-2 receptor subtypes [3]: binds equally well to the sigma-1 and sigma-2 receptor subtypes
